Consider two compounds from patent US20080194922A1, “POTENTIATION FOR MEDICAL THERAPIES” (priority 2005, published 2008).

The subject of data set [1] is multiple myeloma in a cat. Briefly: Narrow therapeutic band established by potentiating the therapy of multiple myeloma in a cat.
For data set [2], the system named is cat with multiple myeloma. The data set can be described thus: Delta Correlation Function analysis of dexamethasone dose versus food intake, cat myeloma model. In kind it is in vivo. Particulars: for normalized DCF, food intake versus dexamethasone dose: 1 day off. The source says:
The inventive method was used to analyze changes from day to day. The data was digitized by substituting either +1 for positive change (dayn+i greater than dayn), 0 (zero) for no change, and −1 for negative change (dayn+i less than dayn). Digitizing the change magnifies small changes by giving small differences the same value as large differences. For example, a positive change is noted as +1 whether the change is 1 milligram or 10 grams.
The inventive method multiplied a digitized change in therapy element by the corresponding digitized change in correlation factor to produce a correlation product. Because the digitized changes are signed (+ or −), changes in the same direction (both positive or both negative) produce a positive product. Changes in opposite directions (one negative and one positive) produce a negative product. The inventive method then provided a rolling average of correlation products over fixed period of time. (A positive average indicates a positive correlation between dose and result.)
There is a phase or timing relationship that should be considered. FIG. 15, drawn to the same scale as FIG. 14, illustrates an eighteen day rolling average of correlation product with a one day offset for the change in food intake. That is, the food intake on dayn+i minus the food intake on dayn is multiplied by the dose on dayn minus the dose on dayn—i. In FIGS. 12-14, the product is the food intake on dayn minus the food intake on dayn—i multiplied by the dose on dayn minus the dose on dayn—i.
Because of the delayed effect of some therapies, the invention provides for an “offset,” or staggering, of the corresponding therapy elements and correlation factors that are multiplied to obtain the normalized Delta Correlation Function (DCF).
A method provided by the invention was used to optimize the dexamethasone regimen based on the correlation factor food intake (i.e., determined the dexamethasome regimen that produces an increase in food intake.) Again, the cat myeloma model was used. […] The normalized DCF was calculated based upon a 24 time point sample (Days 445 to 469) with various offsets.

Data set [3] relates to cat with multiple myeloma. Briefly: System Functions (linear regression of dexamethasone dose versus food intake) and test of dexamethasone regimens, cat myeloma model. In kind it is in vivo. The source says: Based on the foregoing analysis, 3 different dexamethasone regimens where designed and hypothesized systems functions were formulated for predicting the impact of a regimen on food intake. […] In general, the system functions are in the form of:
Predicted Food Intake Dayn (tsp)=(dexamethasone dose Dayn) (mg)×Factor Dayn (tsp/mg);
Predicted Food Intake Dayn+1 (tsp)=[(dexamethasone dose Dayn+1) (mg)×Factor Dayn+1 (tsp/mg)]+Predicted Food Intake Dayn;
Predicted Food Intake Dayn+2 (tsp)=[(dexamethasone dose Dayn+2) (mg)×Factor Dayn+2 (tsp/mg)]+Predicted Food Intake Dayn+1;
wherein “Dayn” is the first day of a three to six day dosing cycle and, if the dexamethasone dose is 0.00, this value is converted to 1.00. “Factor Dayn” is regimen specific and was determined by linear regression analysis of the correlation between dexamethasone dose and food intake performed separately for days 1, 2, and 3 of the cycle a given regimen. For example, all first day dexamethasone administrations were identified in the past data. Food intake for those days were compared to the food intake the day before and averaged, then divided by the dose of dexamethasone for each first day (((Food Intake Dayn (tsp)−Dayn−1 (tsp))/number of first days)/dexamethasone Dayn).
The system functions were used to predict the results with three dexarnethasone regimens. Regimen 1 employs a dosing schedule of 0.250 mg dexamethasone 2 days on and then 1 day off.

[4] abbreviates: thalidomide 1.6 mg, in combination with the other elements of the potentiating protocol.

Regarding `O=C1CCC(N2C(=O)c3ccccc3C2=O)C(=O)N1` (centres unmarked) [thalidomide], in data set [1] (setting [4]), the “side effects at minimum dose” value was “without significant thalidomide side effects or resistance” and the “therapeutic effect at minimum dose” value was “controlled the disease”. For the same compound, the “therapeutic effect above end point of narrow band” value in data set [1] (thalidomide doses above 1.8 mg) is recorded as “not increased”. Further, the “adverse side effects above end point of narrow band” value in data set [1] (thalidomide doses above 1.8 mg, such as peripheral neuropathy) is reported as “increased”.

Take `C[C@@H]1C[C@H]2[C@@H]3CCC4=CC(=O)C=C[C@]4(C)[C@@]3(F)[C@@H](O)C[C@]2(C)[C@@]1(O)C(=O)CO` [dexamethasone]: the “normalized DCF, food intake versus dexamethasone dose” value was −0.16 in data set [2] (0.175 mg/day, 2 days on, Days 445 to 469 (24 time points), same day basis (no offset)); “+0.37” in data set [2] (0.175 mg/day, 2 days on, Days 445 to 469, 2 day offset); −0.09 in data set [2] (0.175 mg/day, 2 days on, Days 445 to 469, 3 day offset); −0.21 in data set [2] (0.175 mg/day, 2 days on, Days 445 to 469, food intake offset by 1 day); “+0.5” in data set [2] (0.375 mg, 1 day on, Days 37 to 61, 1 day offset); −0.52 in data set [2] (0.375 mg, 1 day on, Days 37 to 61, same day). In data set [2] (0.375 mg, 1 day on, 1 day off regimen), the “time required for the dexamethasone therapeutic effect to develop” value is “approximately 1 day”. In addition, the “side effects at minimum dose” value in data set [1] (dexamethasone 0.125 mg (modulated 2 days on, 1 day off), in combination with the other elements of the protocol) is listed as “without significant side effects”. For the same compound, the “adverse side effects above end point of narrow band” value in data set [1] (dexamethasone doses above 0.162 mg, such as thromboses and peripheral neuropathy) is “increased”. In data set [3] (Regimen 1 (0.250 mg 2 days on, 1 day off), Dayn), the “Factor Dayn of System Function (food intake per dexamethasone dose)” value is −5.11 tsp/mg. The “Factor Dayn+1 of System Function” value in data set [3] (Regimen 1, Dayn+1) is 8.57 tsp/mg; in data set [3] (Regimen 2, Dayn+1), 8.57 tsp/mg; in data set [3] (Regimen 3, Dayn+1), 8.57 tsp/mg. The “Factor Dayn+2 of System Function” value is given as 2.23 tsp/mg in data set [3] (Regimen 1, Dayn+2 (day off, dose 0.00 converted to 1.00)); −0.53 tsp/mg in data set [3] (Regimen 2, Dayn+2 (0.125 mg)); −0.53 tsp/mg in data set [3] (Regimen 3, Dayn+2). The food intake reached in data set [3] (Regimen 1: 0.250 mg dexamethasone 2 days on, 1 day off, physiologic limit) is 15.5 tsp per day. In addition, the “Factor Dayn of System Function” value in data set [3] (Regimen 2 (0.250 mg 2 days on, then 1 day at 0.125 mg), Dayn) was −5.11 tsp/mg; in data set [3] (Regimen 3 (0.125 mg every day, six day cycle), Dayn), −5.11 tsp/mg. The “Factor Dayn+3 of System Function” value in data set [3] (Regimen 3, Dayn+3) is −0.10 tsp/mg. Besides, the “Factor Dayn+4 of System Function” value in data set [3] (Regimen 3, Dayn+4) is 3.89 tsp/mg. Besides, the “Factor Dayn+5 of System Function” value in data set [3] (Regimen 3, Dayn+5) is listed as −1.72 tsp/mg.
